The subject of data set [1] is highly active NK cells. Kind of data set: Viability of freeze-thawed highly active NK cells (7-AAD staining, flow cytometry, FlowJo). As to the method:
The highly activated NK cells (1×10^5 cells/well) thawed under each condition were centrifuged on a 96-well plate (IWAKI, 4870-800SP), the supernatant was removed, and then a 7-amino-actinomycin D (7-AAD) solution diluted with PBS (Beckman Coulter, A 07704) was added to the cells to suspend them, and the suspension was incubated at room temperature (room temperature means 15 to 25° C., the same shall apply in the following experiments) for 20 minutes. The stained cells were measured by using a flow cytometer (BD LSR Fortessa, BD Biosciences).
The NK cells frozen for 48 hours or longer were thawed in a water bath at 37° C., and 1×10^5 cells were dispensed on a 96-well plate (IWAKI) immediately after the thawing. […] The cells dispensed immediately after thawing were centrifuged immediately after they were dispensed, and the cells of the other four groups were centrifuged after incubation of 3 hours, measurement was performed by the method for staining with 7-AAD described above, and the results were analyzed with the FlowJo software (FLOWJO, LLC) to calculate viable cell rates.
The NK cells frozen for 48 hours or longer were thawed at 37° C. in a water bath, and then 1×10^5 of the cells were dispensed on a 96-well plate immediately after the thawing. […] The cells dispensed immediately after thawing were centrifuged immediately after they were dispensed, and the cells of the other four groups were centrifuged after incubation of 3 hours, measurement was performed by the method for staining with 7-AAD described above, and the results were analyzed with the FlowJo software (FLOWJO, LLC) to calculate viable cell rates.
Then, measurement was performed by the method for staining with 7-AAD described above, and the results were analyzed with the FlowJo software. […] Then, measurement was performed by the method for staining with 7-AAD described above, and the results were analyzed with the FlowJo software. (8-3) The experiment was performed in the same manner as in (8-1), but (1) PBS, (2) Plasma-Lyte A, (3) Plasma-Lyte A containing 27.7 mEq/L of lactic acid (Nacalai Tesque, 20006-62), (4) Plasma-Lyte A containing 48.84 mg/L of MgSO4.7H2O (Nacalai Tesque, 21002-85), (5) Lactoringer, (6) Veen-F (Fuso Pharma), (7) Solita-T1 (AY Pharmaceuticals), (8) Solita-T3 (AY Pharmaceuticals), (9) 5% glucose injection solution (Terumo), and (10) RPMI medium were used as the solvents for dilution of thawed cells, and the cells were incubated at 37° C. for 3 hours. In the case of (3), lactic acid was added at the same concentration as the lactate concentration in Lactoringer, and neutrality of the solution was confirmed with litmus test paper. In the case of (4), MgSO4 was added at the same concentration as the MgSO4 concentration in HBSS. Measurement was then performed by the method for staining with 7-AAD described above, and the results were analyzed with the FlowJo software. (8-4) The experiment was performed in the same manner as in (8-2), but the cells were treated by using (1) PBS, (2) Plasma-Lyte A, (3) saline (OTSUKA NORMAL SALINE, Otsuka Pharmaceutical), (4) Bicanate (Otsuka Pharmaceutical), and (5) Solacet F (Terumo) as the solvents for dilution of thawed cells. Measurement was then performed by the method for staining with 7-AAD described above, and the results were analyzed with the FlowJo software. […] Immediately after completely thawed, the cells were diluted 10-fold in (1) Plasma-Lyte A, (2) saline, (3) RPMI 1640 medium, (4) Lactoringer, (5) 0.423 mM CaCl2 prepared in Plasma-Lyte A, and (6) 1.36 mM CaCl2, and left to stand at 37° C. for 3 hours. The CaCl2 concentration of (5) was the same as that in the RPMI 1640 medium, and the CaCl2 concentration of (6) was the same as that in Lactoringer. Measurement was then performed by the method for staining with 7-AAD described above, and the results were analyzed with the FlowJo software.
Background: A flow cytometer gives signals particle by particle.

For data set [2], the system named is highly active NK cells. In words: Viable cell count and recovery rate of highly active NK cells after thawing, based on cell number at freezing. Details: species or system human. The procedure: After the thawing, all the dilution and incubation operations were performed on a low-absorption 6-well plate.
The cells of the groups diluted in the media were incubated overnight at 37° C. under 5% CO2, and then the numbers of viable cells were counted. The experimental conditions are summarized below.
The NK cells obtained by the collection method 1 were suspended in PBS, and incubated at room temperature for 1 hour. The NK cells obtained by the collection method 2 were suspended in (1) the KBM501 medium, (2) KBM501 medium containing 30 μM 4-phenylbutyric acid, (3) KBM501 medium containing 30 μM tauroursodeoxycholic acid dihydrate (TUDCA, Tokyo Kasei Kogyo, T1567), and (4) KBM501 medium containing 30 μM 4-phenylbutyric acid and 30 μM TUDCA, and incubated at 37° C. for 2 hours under 5% CO2. […] After 1 hour, the cells were gently suspended, and number of viable cells was counted. After another 5-fold dilution in the KBM501 medium and incubation at 37° C. for 2 hours under 5% CO2, number of viable cells was counted, and the recovery rate based on the number of cells at the time of freezing was calculated.
After 1 and 3 hours, the cells were gently suspended, and viable cells were counted. In addition, after 1 hour, the cells were diluted 5-fold in the KBM501 medium, and incubated at 37° C. for 2 hours under 5% CO2, and viable cell were counted. Recovery rate of viable cells after the thawing based on the cell number at the time of freezing was calculated using the number of viable cells at each time point.
After 1 and 3 hours, the cells were gently suspended, and viable cells were counted. In addition, after 1 hour, the cells were diluted 5-fold in the KBM501 medium, and incubated at 37° C. for 2 hours under 5% CO2, and viable cell were counted. Recovery rate of viable cells after the thawing based on the cell number at the time of freezing was calculated on the basis of the number of viable cells at each time point after the thawing.

The next data set relates to K562 cells. Kind of data set: Cytotoxic activity rate (% Lysis) of freeze-thawed highly active NK cells against K562 cells. In kind it is cell-based. To be noted: Exmp. 7, collect. method 2, pretreatment KBM + 2.4% DMSO 2 h. As to the method:
Cytotoxic activity can be expressed as the percentage of target cells killed by effector cells, and is calculated in accordance with the following equation.
(Cell death observed in co-culture with effector cells−Spontaneous cell death (negative control))/(Maximum cell death (positive control)−Spontaneous cell death (negative control))×100
For the measurement of cytotoxic activity, a group of the K562 cells reacted with the NK cells, a group consisting solely of the K562 cells as a negative control, and a group of the K562 cells fixed with 10% formalin as a positive control were prepared.
After incubation for the times indicated for the groups, the cells were collected, and prepared at a density of 2×10^6 cells/mL in 10% FBS/RPMI 1640.
The K562 cells (human chronic myelogenous leukemia cell line) were suspended in serum-free RPMI 1640 medium, stained with PKH26 Red Fluorescent Cell Linker Kit (Sigma, PKH26GL-1KT), and finally prepared at a density of 2×10^6 cells/mL in 10% FBS/RPMI 1640.
The NK cells and K562 cells were added and mixed in wells of 96-well plate (IWAKI, 4870-800SP) at a cell ratio of 1:1, and allowed to react at 37° C. for 2 hours under 5% CO2. After the reaction, the plate was centrifuged (500×g, 5 minutes), and the supernatant was removed. Then, a 7-AAD solution diluted with PBS was added to the cells to suspend the cells, and the suspension was incubated at room temperature for 20 minutes. […]
For the measurement of cytotoxic activity, a group of the NK cells reacted with the K562 cells, a group solely consisting of the K562 cells as a negative control, and a group of the K562 cells fixed with 10% formalin as a positive control were prepared.
The cells were thawed and diluted by the method described above, and a necessary amount of the cells were taken on the basis of the number of viable cells at the time of freezing, and then prepared at a density of 2×10^6 cells/mL in 10% FBS/RPMI 1640.
The K562 cells were suspended in serum-free RPMI 1640 medium, stained with PKH26 Red Fluorescent Cell Linker Kit, and then prepared at a density of 2×10^6 cells/mL in 10% FBS/RPMI 1640. […]
For the measurement of cytotoxic activity, a group of NK cells reacted with K562 cells, a group of K562 cells only as a negative control, and a group of K562 cells fixed with 10% formalin as a positive control were prepared. […]
(9-2) Cytotoxic activity was measured in the same manner as described in the section of (9-1), but after thawing and dilution, the cells were left to stand for up to 6 hours, and cytotoxic activity was measured by the method described in the section b) mentioned above at the time points of 2, 5, and 6 hours. In detail, the NK cells and K562 cells were added to each well of a 96-well plate (IWAKI, 4870-800SP) at a cell ratio of 1:1, mixed, and then allowed to react at 37° C. for 2 hours under 5% CO2.

Data set [3] has as its system highly active NK cells. In words: Optical microscope observation of highly active NK cells after freeze-thawing. It counts as cell-based, human. The following applies: additive in KBM501 medium used for 10-fold dilution after thawing; 37° C. 3 hours (or 4° C. 3 hours then 37° C. 3 hours); cells washed with PBS.
Experimental: The NK cells frozen for 48 hours or longer were thawed at 37° C. in a water bath, then diluted 10-fold in the solvents mentioned below, left to stand at the temperatures for the times mentioned below, then observed and photographed under an optical microscope.
<1> Diluted in the KBM501 medium, and left to stand at 37° C. for 3 hours. <2> Diluted in the KBM501 medium containing Z-Vad, and left to stand at 37° C. for 3 hours. <3> Diluted in the KBM501 medium containing methylprednisolone, and left to stand at 37° C. for 3 hours. <4> Diluted in the KBM501 medium containing dexamethasone, and left to stand at 37° C. for 3 hours. <5> Diluted in the KBM501 medium, and left to stand at 4° C. for 3 hours. <6> Diluted in the KBM501 medium containing methylprednisolone, and left to stand at 4° C. for 3 hours, and then at 37° C. for 3 hours. <7> Diluted in the KBM501 medium containing dexamethasone, and left to stand at 4° C. for 3 hours, and then at 37° C. for 3 hours.

We go through 5 molecules from patent publication US20230109717A1 (GAIA BioMedicine Inc., priority 2020, published 2023).

“Also recorded” adds a separate entry of the source.

Turning to `O=C(O)CCCc1ccccc1` [4-PBA, 4-phenylbutyric acid], the Viability result in the data set with highly active NK cells [1] (Exmp. 4, collect. method 1, pretreatment KBM + 10 μM 4-PBA 2 h, thawing PlasmaLyte + IL-2 1 h, then KBM o/n) is on record as “A (“A” means 70% or higher)”. The “Recovery rate after the thawing” value in the data set with highly active NK cells [2] (pretreatment 2 hours with KBM501 medium supplemented with 30 μM additive before freezing, Example 5) is “improved”. In addition, the “Viability after the thawing” value in the data set on highly active NK cells [2] (treatment with KBM501 supplemented with 10 or 100 μM additive before freezing, viable cells counted after overnight incubation, Example 4) was “improved”.
Turning to `C[S+](C)[O-]` [DMSO, dimethyl sulfoxide], the Activity result in the data set on K562 cells (thawing PlasmaLyte + IL-2, R.T. 1 h) is “A (A means 70% or higher)”; with K562 cells (thawing PlasmaLyte + IL-2, R.T. 1 h, then KBM 2 h), “A (A means 70% or higher)”; with K562 cells (thawing PlasmaLyte + IL-2, R.T. 3 h), “A (A means 70% or higher)”; in the data set on K562 cells (thawing PlasmaLyte R.T. 1 h) it was “A (A means 70% or higher)”; in the data set on K562 cells (thawing PlasmaLyte R.T. 1 h, then KBM 2 h), “A (A means 70% or higher)”; in the data set with K562 cells (thawing PlasmaLyte R.T. 3 h), “A (A means 70% or higher)”.
For `[Cl-].[Cl-].[Mg+2]` [MgCl2, Magnesium chloride], the Viability result with highly active NK cells [1] (100 mM as solution used at thawing, cells washed with KBM501 medium, conditions (12-4) and (12-5)) is listed as “degraded”.
In the case of `O=C([O-])[C@H](O)[C@@H](O)[C@H](O)[C@H](O)CO.[Na+]` [gluconic acid, sodium gluconate], in the data set on highly active NK cells [1] (added to KBM501 medium used for dilution at thawing (5.02 mg/mL sodium gluconate), 37° C. 3 hours, Example 1), the “Viability of frozen highly active NK cells after thawing” value was “did not show improvement; also recorded: no improvement”.
Regarding Z-VAD, the “Viability of highly active NK cells after freeze-thawing (optical micrographs)” value in the data set on highly active NK cells [3] is recorded as “not improved”.
